“And” between values parts separate entries of the source, which are not always exact repeats. Equal values may be shown once.
How the values were obtained:
hCA II = target: T1, hCA II (Homo sapiens, UniProt P00918); assay: CA inhibition, stopped-flow CO2 hydration assay; format: biochemical; details: for Ki: stopped-flow technique, mean of three experiments, errors ±5–10%
T1 construct: His-tag (N); made in house; host or cells: Escherichia coli BL21 (DE3)
Method: (§1) The CO2 concentrations ranged from 1.7 to 17 mM for the determination of the kinetic parameters and inhibition constants. For each inhibitor, six traces of the initial 5–10% of the reaction were used in order to determine the initial velocity. The uncatalyzed reaction rates were determined in the same manner and subtracted from the total observed rates. Stock solutions of inhibitor (0.1 mM) were prepared in distilled water, and dilutions up to 0.01 nM were prepared. Solutions containing inhibitor and enzyme were preincubated for 15 min at room temperature prior to assay in order to allow the formation of the E−I complex. The inhibition constants were obtained as nonlinear least-squares protocols using PRISM 3 and are the mean from at least three different measurements.

hCA XII = target: T2, hCA XII (Homo sapiens, UniProt O43570); assay: CA inhibition, stopped-flow CO2 hydration assay; format: biochemical; details: stopped-flow technique; mean of three experiments, errors ±5–10%
T2 construct: His-tag (N); made in house; host or cells: Escherichia coli BL21 (DE3)
Method: as §1

Recombinant human MAO-A = target: T3, Recombinant human MAO-A (Homo sapiens, UniProt P21397); assay: In vitro MAO-A inhibition assay (kynuramine, fluorescence); format: biochemical; details: kynuramine substrate, mean ± S.D. of three independent experiments
T3 construct: purchased Sigma-Aldrich
T3 sequence (P21397 1-527): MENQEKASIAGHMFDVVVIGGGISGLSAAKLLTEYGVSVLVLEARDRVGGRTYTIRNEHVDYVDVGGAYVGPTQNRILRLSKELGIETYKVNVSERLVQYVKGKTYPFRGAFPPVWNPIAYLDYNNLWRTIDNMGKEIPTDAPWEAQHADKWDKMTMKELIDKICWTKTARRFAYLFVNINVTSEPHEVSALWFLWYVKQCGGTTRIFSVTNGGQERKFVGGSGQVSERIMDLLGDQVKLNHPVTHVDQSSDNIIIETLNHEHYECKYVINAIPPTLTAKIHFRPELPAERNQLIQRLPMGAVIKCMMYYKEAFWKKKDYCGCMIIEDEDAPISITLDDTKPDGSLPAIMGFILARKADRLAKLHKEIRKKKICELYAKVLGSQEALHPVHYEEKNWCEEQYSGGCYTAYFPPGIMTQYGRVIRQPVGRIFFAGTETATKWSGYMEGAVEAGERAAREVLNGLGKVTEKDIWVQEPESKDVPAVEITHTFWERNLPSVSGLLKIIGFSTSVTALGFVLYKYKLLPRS
Method: (§2) Kynuramine is a non-specific substrate and served as the substrate for both MAO isoforms. The MAOs metabolize kynuramine to produce 4-hydroxyquinoline, which was measured at the endpoint of the enzyme reactions by fluorescence spectrophotometry.

Recombinant human MAO-B = target: T4, Recombinant human MAO-B (Homo sapiens, UniProt P27338); assay: In vitro MAO-B inhibition assay (kynuramine, fluorescence); format: biochemical; details: kynuramine substrate, mean ± S.D. of three independent experiments
T4 construct: purchased Sigma-Aldrich
T4 sequence (P27338 1-520): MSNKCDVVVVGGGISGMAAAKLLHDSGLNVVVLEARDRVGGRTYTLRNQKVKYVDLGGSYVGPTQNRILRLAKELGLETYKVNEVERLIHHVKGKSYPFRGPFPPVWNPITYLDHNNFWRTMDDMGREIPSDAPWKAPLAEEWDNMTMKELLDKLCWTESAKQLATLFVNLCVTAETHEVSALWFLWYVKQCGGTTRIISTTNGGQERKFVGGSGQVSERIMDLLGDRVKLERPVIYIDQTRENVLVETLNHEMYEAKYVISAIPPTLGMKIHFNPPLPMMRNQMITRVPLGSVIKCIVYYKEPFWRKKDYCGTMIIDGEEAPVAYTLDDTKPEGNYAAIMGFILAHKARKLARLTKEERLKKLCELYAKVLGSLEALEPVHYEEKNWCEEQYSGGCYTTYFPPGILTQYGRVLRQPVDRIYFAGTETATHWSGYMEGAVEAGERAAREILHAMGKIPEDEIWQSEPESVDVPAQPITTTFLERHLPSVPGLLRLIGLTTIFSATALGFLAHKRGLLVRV
Method: as §2

hCA VII = hCA VII (Homo sapiens, UniProt P43166); assay: CA inhibition, stopped-flow CO2 hydration assay
Method: as §1

hCA VB = target: T5, hCA VB (Homo sapiens, UniProt Q9Y2D0); assay: CA inhibition, stopped-flow CO2 hydration assay; format: biochemical; details: stopped-flow technique; mean of three experiments, errors ±5–10%
T5 construct: His-tag (N); made in house; host or cells: Escherichia coli BL21 (DE3)
Method: as §1

hCA VA = target: T6, hCA VA (Homo sapiens, UniProt P35218); assay: CA inhibition, stopped-flow CO2 hydration assay; format: biochemical; details: stopped-flow technique; mean of three experiments, errors ±5–10%
T6 construct: His-tag (N); made in house; host or cells: Escherichia coli BL21 (DE3)
Method: as §1

hCA IX = target: T7, hCA IX (Homo sapiens, UniProt Q16790); assay: CA inhibition, stopped-flow CO2 hydration assay; format: biochemical; details: stopped-flow technique; mean of three experiments, errors ±5–10%
T7 construct: His-tag (N); made in house; host or cells: Escherichia coli BL21 (DE3)
Method: as §1

hCA I = target: T8, hCA I (Homo sapiens, UniProt P00915); assay: CA inhibition, stopped-flow CO2 hydration assay; format: biochemical; details: for Ki: stopped-flow technique, mean of three experiments, errors ±5–10%
T8 construct: His-tag (N); made in house; host or cells: Escherichia coli BL21 (DE3)
Method: as §1

MAO = tested on: MAO; set-up: method as in PMID 30809547; details: cited from earlier work
MAO-B = tested on: MAO-B; set-up: method as in PMID 7699569; details: cited from earlier work

T6 sequence (P35218 39-305): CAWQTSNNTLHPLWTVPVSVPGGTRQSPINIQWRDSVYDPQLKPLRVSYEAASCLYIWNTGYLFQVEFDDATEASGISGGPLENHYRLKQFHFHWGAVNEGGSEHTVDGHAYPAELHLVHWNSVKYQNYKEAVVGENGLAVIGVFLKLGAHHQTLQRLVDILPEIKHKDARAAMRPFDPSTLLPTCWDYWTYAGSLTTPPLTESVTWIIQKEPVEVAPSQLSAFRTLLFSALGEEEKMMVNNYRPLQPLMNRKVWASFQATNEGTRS
T2 sequence (O43570 25-354): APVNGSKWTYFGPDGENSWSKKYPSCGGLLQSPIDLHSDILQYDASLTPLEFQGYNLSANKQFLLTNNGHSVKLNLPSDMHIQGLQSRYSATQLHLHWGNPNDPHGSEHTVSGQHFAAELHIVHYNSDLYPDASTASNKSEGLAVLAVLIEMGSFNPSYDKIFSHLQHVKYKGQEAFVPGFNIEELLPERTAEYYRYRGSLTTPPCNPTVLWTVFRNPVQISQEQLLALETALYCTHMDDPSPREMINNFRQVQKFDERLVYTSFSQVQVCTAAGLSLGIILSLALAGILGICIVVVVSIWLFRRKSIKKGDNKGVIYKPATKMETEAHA
Sequence of hCA VII (P43166 whole entry): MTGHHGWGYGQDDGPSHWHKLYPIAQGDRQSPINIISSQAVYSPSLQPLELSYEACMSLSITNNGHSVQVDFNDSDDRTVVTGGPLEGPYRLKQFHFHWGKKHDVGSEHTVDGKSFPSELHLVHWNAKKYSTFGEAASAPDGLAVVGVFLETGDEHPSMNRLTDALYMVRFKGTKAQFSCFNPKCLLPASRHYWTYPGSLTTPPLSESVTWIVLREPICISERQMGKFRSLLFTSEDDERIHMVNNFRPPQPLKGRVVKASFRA
T5 sequence (Q9Y2D0 34-317): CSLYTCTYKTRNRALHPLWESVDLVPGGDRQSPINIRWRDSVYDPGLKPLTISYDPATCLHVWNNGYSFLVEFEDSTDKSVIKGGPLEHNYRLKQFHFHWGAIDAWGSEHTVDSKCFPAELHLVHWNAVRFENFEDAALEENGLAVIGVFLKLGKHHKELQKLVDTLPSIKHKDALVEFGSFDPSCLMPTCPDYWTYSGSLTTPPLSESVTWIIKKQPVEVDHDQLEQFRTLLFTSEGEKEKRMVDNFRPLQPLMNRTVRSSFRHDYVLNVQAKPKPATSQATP
T8 sequence (P00915 whole entry): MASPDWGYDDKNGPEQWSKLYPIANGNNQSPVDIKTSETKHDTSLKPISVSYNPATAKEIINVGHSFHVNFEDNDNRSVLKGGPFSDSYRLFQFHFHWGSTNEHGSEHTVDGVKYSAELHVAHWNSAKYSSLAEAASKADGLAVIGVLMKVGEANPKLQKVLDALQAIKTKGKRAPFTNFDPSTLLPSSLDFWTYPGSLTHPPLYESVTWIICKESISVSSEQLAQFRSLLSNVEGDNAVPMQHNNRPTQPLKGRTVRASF

Ki (hCA II) [µM] | Ki (hCA XII) [µM] | IC50 (Recombinant human MAO-A) | IC50 (Recombinant human MAO-B) [µM] | Ki (hCA VII) [µM] | Ki (hCA VB) [µM] | Ki (hCA VA) [µM] | Ki (hCA IX) [µM] | Ki (hCA I) [µM] | inhibition potency against hCA II weaker than against hCA VII (hCA II; hCA II vs hCA VII) | inhibitory activities against hCA I, VA, and VB lower than against hCA VII (hCA I; hCA I, VA, VB vs hCA VII) | Compound | mechanism of MAO inhibition (MAO) | IC50 (MAO-B) [µM]
15.6 | 6.9 | 0.43 µM and 0.433 µM | 0.011 ± 0.0065 | 0.7 | 36.2 | 70.9 | 17.4 | 86.8 | about 22 fold | up to 120 fold | Oc1ccc(/C=C/c2ccc(C(F)(F)F)cc2)cc1Cl [Compound 4] | – | –
43.4 | > 100 | 9.77 ± 0.553 µM | 14.2 ± 1.82 | > 100 | 8.7 | 83 | 94.6 | > 100 | – | – | Oc1ccc(/C=C/c2ccc(C(F)(F)F)cc2)cc1 [Compound 5] | – | –
75.3 | > 100 | 2.01 ± 0.033 µM | 0.103 ± 0.003 | 7.4 | 9.5 | > 100 | > 100 | > 100 | – | – | N#Cc1ccc(/C=C/c2ccc(O)cc2)cc1 [Compound 6] | – | –
> 100 | > 100 | 2.71 ± 0.016 µM | 0.185 ± 0.009 | 9.4 | 9.7 | > 100 | 81.8 | > 100 | – | – | COc1ccc(/C=C/c2ccc(O)cc2)cc1 [Compound 7] | – | –

Second part, the compound before the results:

Compound | Ki (hCA II) [µM] | Ki (hCA XII) [µM] | IC50 (Recombinant human MAO-A) | IC50 (Recombinant human MAO-B) [µM] | Ki (hCA VII) [µM] | Ki (hCA VB) [µM] | Ki (hCA VA) [µM] | Ki (hCA IX) [µM] | Ki (hCA I) [µM] | inhibition potency against hCA II weaker than against hCA VII (hCA II; hCA II vs hCA VII) | inhibitory activities against hCA I, VA, and VB lower than against hCA VII (hCA I; hCA I, VA, VB vs hCA VII) | mechanism of MAO inhibition (MAO) | IC50 (MAO-B) [µM]
Oc1ccc(/C=C/c2ccccc2)cc1Cl [Compound 1] | 35.8 | 2.7 | 3.06 ± 0.1 µM | 0.156 ± 0.009 | > 100 | 84.5 | 9 | 23.6 | 89.5 | – | – | – | –
Oc1ccc(/C=C/c2ccc(Cl)cc2Cl)cc1Cl [Compound 2] | > 100 | 4.5 | 2.02 ± 0.175 µM | 1.44 ± 0.035 | 4.2 | 32.2 | 37.2 | 81.1 | > 100 | – | – | – | –
Oc1ccc(/C=C/c2ccc(Cl)cc2Cl)cc1 [Compound 3] | > 100 | > 100 | 1.79 ± 0.095 µM | 1.52 ± 0.067 | 7.5 | > 100 | 86 | > 100 | > 100 | – | – | – | –
Oc1ccc(C=Cc2cc(O)cc(O)c2)cc1 [RSV, 3,4′,5-trihydroxystilbene, reference compound] | 2.8 | 0.9 | – | > 100 | 4.3 | 4.6 | 4.7 | 0.8 | 2.2 | – | – | competitive | –

Reference: publication PMC9694798, “Resveratrol Analogues as Dual Inhibitors of Monoamine Oxidase B and Carbonic Anhydrase VII: A New Multi-Target Combination for Neurodegenerative Diseases?” (Molecules, 2022)
